Experimental data taken from patent US10988523B2, “Modified lipidated Relaxin B chain peptides and their therapeutic use” (Sanofi, priority 2018, dated 2021).
*1 amine or outer side, *2 acyl side, *3 side chain or, on linkers, in order; H or OH if unused. Where a SMILES comes first, the peptide text is derived from it. Side-chain parts run from the residue outwards. [ ]: non-standard residue; d: D form. The star is where a group is joined. γGlu = O=C(O)[C@H](CCC(=O)[*:2])N[*:1]; Palmitoyl = CCCCCCCCCCCCCCCC(=O)*; αMeK = C[C@](N)(CCCCN)C(=O)O; AEEA = NCCOCCOCC(=O)O; Aib = CC(C)(N)C(=O)O

How the values were obtained:
[1] = Stability testing of peptides in human plasma or blood; format: in vitro ADME; conditions: 37° C.
Summary of the method: (§1)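 Peptide at 5 µM final was incubated at 37 °C in heparinized rat or human plasma or blood, sampled up to 4 h, and extracted with acetonitrile/1% TFA. HPLC peak areas relative to t0 give % remaining peptide.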

[2] = Pharmacokinetic (PK) determination after i.v. or s.c. administration to rats; format: in vivo, Sprague Dawley rats; conditions: Sprague Dawley, Rat PK
Summary of the method: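 Non-compartmental analysis of plasma LC/MS data (protein precipitation, BLQ taken as zero) gave T½, C0 (i.v.), Cmax/Tmax (s.c.) and F% from dose-corrected AUCs. Dosing: 3 mg/kg s.c. or 1 mg/kg i.v. in PBS to Sprague Dawley rats, purity- and salt-corrected.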

[3] = Stability testing of peptides in rat plasma or blood; format: in vitro ADME; conditions: 37° C.
Summary of the method: as §1

RXFP1 = biological target: T1, RXFP1 (Homo sapiens, UniProt Q9HBX9); assay: OVCAR5 cAMP assay (HTRF), RXFP1 agonist activity; format: cell-based
T1 construct: OVCAR5 cells expressing endogenous RXFP1; endogenous in cells; host or cells: OVCAR5 cells
T1 sequence (Q9HBX9 1-757): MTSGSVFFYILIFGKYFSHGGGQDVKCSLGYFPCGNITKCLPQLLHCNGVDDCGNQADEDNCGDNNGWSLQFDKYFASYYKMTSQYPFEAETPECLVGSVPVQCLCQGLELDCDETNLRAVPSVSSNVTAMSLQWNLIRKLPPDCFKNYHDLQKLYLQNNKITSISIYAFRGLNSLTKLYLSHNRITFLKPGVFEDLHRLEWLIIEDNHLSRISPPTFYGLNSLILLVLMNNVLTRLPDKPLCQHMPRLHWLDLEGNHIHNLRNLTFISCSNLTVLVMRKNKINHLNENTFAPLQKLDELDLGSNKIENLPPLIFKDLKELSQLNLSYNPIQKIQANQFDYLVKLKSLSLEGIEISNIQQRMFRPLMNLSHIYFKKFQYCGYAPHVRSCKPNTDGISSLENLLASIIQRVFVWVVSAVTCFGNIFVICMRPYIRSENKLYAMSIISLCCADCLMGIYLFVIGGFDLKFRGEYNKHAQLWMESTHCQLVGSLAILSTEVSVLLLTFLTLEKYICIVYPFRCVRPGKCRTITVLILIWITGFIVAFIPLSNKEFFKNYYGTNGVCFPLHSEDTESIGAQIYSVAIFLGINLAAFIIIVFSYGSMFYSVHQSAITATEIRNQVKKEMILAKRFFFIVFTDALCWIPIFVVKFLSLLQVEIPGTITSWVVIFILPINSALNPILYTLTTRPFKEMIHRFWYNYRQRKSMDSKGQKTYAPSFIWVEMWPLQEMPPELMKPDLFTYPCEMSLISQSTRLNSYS
Summary of the method: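 cAMP accumulation readout: after 1 mM IBMX for 40 min, endogenous-RXFP1 OVCAR5 cells got rising peptide concentrations without FCS, 30 min, 37° C, then lysis with HTRF cAMP reagents. Nonlinear regression gave EC50; Emax expressed relative to H2-relaxin maximum, same occasion.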

Human Plasma stability % remaining T = 0 ([1]; human plasma or blood, T = 0 (reference), 5 μM): 100%
remaining at 1 h, 5 µM ([1]; whole blood, human blood, 1 h, read-out: Human stability in blood % remaining 1 h): 107%
remaining at 4 h, 5 µM ([1]; whole blood, human blood, 4 h, read-out: Human stability in blood % remaining 4 h): 106%
C0 ([2]; iv, 1 mg/kg i.v., extrapolated plasma concentration at t=0, read-out: C0): 7.76 µM
half-life ([2]; plasma, iv, 1 mg/kg i.v., read-out: T½ (converted)): 10 h
Cmax ([2]; plasma, sc, 3 mg/kg s.c.): 0.78 µM
Tmax ([2]; plasma, sc, 3 mg/kg s.c.): 4 h
bioavailability ([2]; plasma, subcutaneous, 3 mg/kg s.c. vs 1 mg/kg i.v., dose-corrected AUC ratio): 87%
Rat plasma stability % remaining T = 0 ([3]; rat plasma or blood, T = 0 (reference), 5 μM): 100%
remaining at 1 h, 5 µM ([3]; whole blood, rat blood, 1 h, read-out: Rat stability in blood % remaining 1 h): 107%
remaining at 4 h, 5 µM ([3]; whole blood, rat blood, 4 h, read-out: Rat stability in blood % remaining 4 h): 99%
EC50 (RXFP1; OVCAR5 cells, cAMP HTRF, read-out: EC50 (nM), OVCAR 5 cells (cAMP)): 0.01 nM
Emax (RXFP1; OVCAR-5, maximal cAMP relative to H2-relaxin maximum (100%), read-out: EMax, OVCAR 5 cells (cAMP)): 87%
SMILES: CCCCCCCCCCCCCCCC(=O)N[C@@H](CCC(=O)N[C@@H](CCC(=O)N[C@@H](CCC(=O)N[C@@H](CCC(=O)NCCCC[C@H](NC(=O)COCCOCCNC(=O)COCCOCCNC(=O)COCCOCCNC(=O)COCCOCCNC(=O)[C@H](CCCCNC(C)=O)NC(=O)[C@H](C)NC(=O)[C@H](CCCNC(=N)N)NC(=O)[C@](C)(CCCCN)NC(=O)[C@H](CO)NC(=O)[C@H](Cc1ccccc1)NC(=O)[C@@H](NC(=O)[C@H](CO)NC(=O)[C@H](CCC(N)=O)NC(=O)CNC(=O)[C@H](CCC(=O)O)NC(=O)C(C)(C)NC(=O)C(C)(C)NC(=O)[C@@H](NC(=O)[C@H](CCCCNC(C)=O)NC(=O)[C@H](C)NC(=O)[C@H](CCCNC(=N)N)NC(=O)[C@@H](NC(=O)[C@H](CCCCN)NC(=O)[C@H](CCC(=O)O)NC(=O)[C@H](CCCNC(=N)N)NC(=O)CNC(=O)[C@H](CCC(=O)O)NC(=O)[C@H](CC(C)C)NC(C)=O)C(C)C)[C@@H](C)CC)[C@@H](C)O)C(N)=O)C(=O)O)C(=O)O)C(=O)O)C(=O)O [compound 170] (Ac-LEGREKVRAK(Ac)I[Aib][Aib]EGQSTFS[αMeK]RAK(Ac)[AEEA][AEEA][AEEA][AEEA]K([γGlu-γGlu-γGlu-γGlu-Palmitoyl])-NH2)
